The results in this text go back to patent publication US10392428B2, “GLP-1 derivatives and uses thereof” (Novo Nordisk A/S, priority 2014, dated 2019).

The IC50 is the midpoint of a concentration-inhibition curve. The term EC50 denotes the midpoint of the concentration-response curve.

Data set [1] has as its target T1, human GLP-1 receptor (Homo sapiens, UniProt P43220).
T1 construct: expressed in transfected cells; host or cells: membrane preparation from BHK cells, clone FCW467-12A (parent line BHKTS13)
The data set is described as follows: GLP-1 receptor binding: competitive binding assay (125I-GLP-1, SPA) on isolated membranes at low and high HSA.
Procedure: The purpose of this example is to test the receptor binding of the GLP-1 derivatives in vitro. The receptor binding is a measure of affinity of a derivative for the human GLP-1 receptor.
Each derivative is added in a series of concentrations to isolated membranes containing the human GLP-1 receptor and displacement of the labelled ligand is monitored. The receptor binding is reported as the concentration at which half of the labelled ligand is displaced from the receptor, the IC50 value.
Buffer 1 consisted of 20 mM Na-HEPES plus 10 mM EDTA and pH was adjusted to 7.4. Buffer 2 consisted of 20 mM Na-HEPES plus 0.1 mM EDTA and pH was adjusted to 7.4. Assay buffer consisted of 50 mM HEPES supplemented with 5 mM EGTA, 5 mM MgCl2, 0.005% Tween 20 and pH was adjusted to 7.4. An 8% albumin stock consisted of HSA dissolved at 8% (w/v) in assay buffer. An 0.02% albumin stock consisted of HSA dissolved at 0.02% (w/v) in assay buffer.
The cells express the human GLP-1 receptor.
The cells were grown at 5% CO2 in DMEM, 10% fetal calf serum, 1% Pen/Strep (Penicillin/Streptomycin) and 1.0 mg/ml of the selection marker G418.
To make a membrane preparation the cells were grown to approximately 80% confluence. The cells were washed twice in phosphate-buffered saline and harvested. The cells were pelleted using a brief centrifugation and the cell pellet was kept on ice. […] The homogenate was centrifuged for 15 minutes. The pellet was re-suspended (homogenised) in 10 ml buffer 2 and centrifuged. This step was repeated once more. The resulting pellet was re-suspended in buffer 2 and the protein concentration was determined. The membranes were aliquoted and stored at minus 80° C.
For the receptor binding assay in the presence of low HSA (0.005%) 50 μl of the assay buffer was added to each well of an assay plate.
For the receptor binding assay in the presence of high HSA (2%) 50 μl of the 8% albumin stock was added to each well of an assay plate.
Cell membrane aliquots were thawed and diluted to their working concentration. Fifty μl were added to each well in the assay plate.
WGA SPA beads were suspended in assay buffer at 20 mg/ml. The suspension was diluted to 10 mg/ml in assay buffer just prior to addition to the assay plate. Fifty μl were added to each well in the assay plate.
A 25 μl aliquot was reserved for measuring total counts/well.
The assay plate was incubated for 2 h at 30° C.
The assay plate was centrifuged for 10 min.
The assay plate was read in a Packard TopCount NXT instrument.
The data from the TopCount instrument were transferred to Graph Pad Prism software. Individual replicates were analysed using non-linear regression. IC50 values were calculated by the software and reported in nM. The reported values are averages of all of the measured values for each compound.

Data set [2] is described as follows: Pharmacokinetic study in minipigs (i.v.). To be noted: male, Göttingen, minipig, in vivo, iv; minipigs, i.v., 15 nmol/kg; harmonic mean; read-out: Terminal half-live (converted). The procedure: The derivatives of Examples 12, 14, and 15 were dosed 2 nmol/kg. The derivatives of Examples 1 and 2 were dosed 15 nmol/kg.
Data set [3] deals with T1, human GLP-1 receptor. In words: In vitro potency: CRE luciferase reporter gene assay in BHK cells expressing the human GLP-1 receptor. To be noted: whole cell reporter gene assay, 3 h incubation, average of at least two replicates. It counts as cell-based.
Procedure: The purpose of this example is to test the activity, or potency, of the GLP-1 derivatives in vitro. The in vitro potency is the measure of human GLP-1 receptor activation in a whole cell assay.
In vitro potency was determined by measuring the response of the human GLP-1 receptor in a reporter gene assay. The assay was performed in a stably transfected BHK cell line that expresses the human GLP-1 receptor and contains the DNA for the cAMP response element (CRE) coupled to a promoter and the gene for firefly luciferase (CRE luciferase). When the human GLP-1 receptor is activated it results in the production of cAMP, which in turn results in the luciferase protein being expressed. When assay incubation is completed the luciferase substrate (luciferin) is added and the enzyme converts luciferin to oxyluciferin to produce bioluminescence. The luminescence is measured as the readout for the assay.
The cells were cultured at 5% CO2 in cell culture medium. They were aliquoted and stored in liquid nitrogen. Before each assay an aliquot was taken up and washed twice in PBS before being suspended at the desired concentration in the assay specific buffer.
Assay medium consisted of DMEM w/o phenol red, 10 mM Hepes and 1χ Glutamax. The assay buffer consisted of 2% ovalbumin and 0.2% Pluronic F-68 in assay medium.
1) Cell stocks were thawed in a 37° C. water bath.
2) Cells were washed three times in PBS.
3) Cells were counted and adjusted to 5×10^3 cells/50 μl (1×10^5 cells/ml) in assay medium. A 50 μl aliquot of cells was transferred to each well in the assay plate.
4) Stocks of the test compounds and reference compounds were diluted to a concentration of 0.2 μM in assay buffer. […] 8) A 100 μl aliquot of steadylite plus reagent was added to each well of the assay plate. […] 10) Each assay plate was read in a BioTek Synergy 2 Multi-Mode Reader.
The data from the BioTek Synergy 2 Multi-Mode Reader were transferred to GraphPad Prism software. […]
A minimum of two replicates was measured for each sample. The reported EC50 values are averages of all of the measured values for each compound.
[4] abbreviates: High HSA IC50 (nM), high HSA (2.0% final assay concentration).

Non-standard residues stand in square brackets, D forms with d. Residues, ends and D or L forms follow the SMILES beside them. Groups on a side chain read outwards from the residue. *: point of attachment. X2 = O=C(O)CCCCCCCCCCCCCCCCCCC(=O)NC[C@H]1CC[C@H](C(=O)N[C@@H](CCC(=O)NCCCC[C@H](NC(=O)CC[C@H](NC(=O)[C@H]2CC[C@H](CNC(=O)CCCCCCCCCCCCCCCCCCC(=O)O)CC2)C(=O)O)C(=O)*)C(=O)O)CC1; Desaminohistidyl = O=C(CCc1c[nH]cn1)*; AEEA = NCCOCCOCC(=O)O; Aib = CC(C)(N)C(=O)O

T1 sequence (P43220 24-463): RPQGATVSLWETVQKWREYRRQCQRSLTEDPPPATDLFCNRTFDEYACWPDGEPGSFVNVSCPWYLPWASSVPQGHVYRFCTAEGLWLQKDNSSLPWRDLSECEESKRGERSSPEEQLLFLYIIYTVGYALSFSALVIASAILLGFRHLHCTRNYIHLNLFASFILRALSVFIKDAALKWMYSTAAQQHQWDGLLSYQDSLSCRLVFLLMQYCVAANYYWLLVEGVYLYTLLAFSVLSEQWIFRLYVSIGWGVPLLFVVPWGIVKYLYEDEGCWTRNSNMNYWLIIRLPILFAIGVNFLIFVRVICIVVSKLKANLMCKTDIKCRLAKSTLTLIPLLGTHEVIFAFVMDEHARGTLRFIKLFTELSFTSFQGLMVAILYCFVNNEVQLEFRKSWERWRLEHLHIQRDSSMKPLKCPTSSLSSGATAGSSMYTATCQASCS

As for `CC[C@H](C)[C@H](NC(=O)[C@H](Cc1ccccc1)NC(=O)[C@H](CCC(=O)O)NC(=O)[C@H](CCCNC(=N)N)NC(=O)[C@H](C)NC(=O)[C@H](C)NC(=O)[C@H](CCC(N)=O)NC(=O)[C@H](CCC(=O)O)NC(=O)[C@H](CCC(=O)O)NC(=O)[C@H](CC(C)C)NC(=O)[C@H](Cc1ccc(O)cc1)NC(=O)[C@H](CO)NC(=O)[C@H](CO)NC(=O)[C@@H](NC(=O)[C@H](CC(=O)O)NC(=O)[C@H](CO)NC(=O)[C@@H](NC(=O)[C@H](Cc1ccccc1)NC(=O)[C@@H](NC(=O)CNC(=O)[C@H](CCC(=O)O)NC(=O)C(C)(C)NC(=O)[C@@H](N)Cc1c[nH]cn1)[C@@H](C)O)[C@@H](C)O)C(C)C)C(=O)N[C@@H](C)C(=O)N[C@@H](Cc1c[nH]c2ccccc12)C(=O)N[C@@H](CC(C)C)C(=O)N[C@H](C(=O)N[C@@H](CCCNC(=N)N)C(=O)NCC(=O)N[C@@H](CCCNC(=N)N)C(=O)N[C@@H](CCCCNC(=O)COCCOCCNC(=O)[C@H](CCCCNC(=O)COCCOCCNC(=O)COCCOCCNC(=O)CC[C@H](NC(=O)[C@H]1CC[C@H](CNC(=O)CCCCCCCCCCCCCCCCCCC(=O)O)CC1)C(=O)O)NC(=O)COCCOCCNC(=O)COCCOCCNC(=O)CC[C@H](NC(=O)[C@H]1CC[C@H](CNC(=O)CCCCCCCCCCCCCCCCCCC(=O)O)CC1)C(=O)O)C(=O)O)C(C)C` [Example 1, N{Epsilon-37}-[2-[2-[2-[[(2S)-2,6-bis[[2-[2-[2-[[2-[2-[2-[[(4S)-4-carboxy-4-[[4-[(19-carboxynonadecanoylamino)methyl]cyclohexanecarbonyl]amino]butanoyl]amino]ethoxy]ethoxy]acetyl]amino]ethoxy]ethoxy]acetyl]amino]hexanoyl]amino]ethoxy]ethoxy]acetyl]-[Aib8,Glu22,Arg26,Arg34,Lys37]-GLP-1-(7-37)-peptide], the concentration for half-maximal inhibition (IC50) in data set [1] (setting [4]) worked out at 140 nM. Besides, in data set [2], the half-life is 162 h.

For `CC[C@H](C)[C@H](NC(=O)[C@H](Cc1ccccc1)NC(=O)[C@H](CCC(=O)O)NC(=O)[C@H](CCCNC(=N)N)NC(=O)[C@H](C)NC(=O)[C@H](C)NC(=O)[C@H](CCC(N)=O)NC(=O)[C@H](CCC(=O)O)NC(=O)[C@H](CCC(=O)O)NC(=O)[C@H](CC(C)C)NC(=O)[C@H](Cc1ccc(O)cc1)NC(=O)[C@H](CO)NC(=O)[C@H](CO)NC(=O)[C@@H](NC(=O)[C@H](CC(=O)O)NC(=O)[C@H](CO)NC(=O)[C@@H](NC(=O)[C@H](Cc1ccccc1)NC(=O)[C@@H](NC(=O)CNC(=O)[C@H](CCC(=O)O)NC(=O)C(C)(C)NC(=O)CCc1cnc[nH]1)[C@@H](C)O)[C@@H](C)O)C(C)C)C(=O)N[C@@H](C)C(=O)N[C@@H](Cc1c[nH]c2ccccc12)C(=O)N[C@@H](CC(C)C)C(=O)N[C@H](C(=O)N[C@@H](CCCNC(=N)N)C(=O)NCC(=O)N[C@@H](CCCNC(=N)N)C(=O)NCC(=O)NCC(=O)N[C@@H](CCCCNC(=O)COCCOCCNC(=O)COCCOCCNC(=O)COCCOCCNC(=O)COCCOCCNC(=O)[C@H](CCCCNC(=O)CC[C@H](NC(=O)[C@H]1CC[C@H](CNC(=O)CCCCCCCCCCCCCCCCCCC(=O)O)CC1)C(=O)O)NC(=O)CC[C@H](NC(=O)[C@H]1CC[C@H](CNC(=O)CCCCCCCCCCCCCCCCCCC(=O)O)CC1)C(=O)O)C(=O)O)C(C)C` [Example 6, [Imp7,Aib8,Glu22,Arg26,Arg34]-GLP-1-(7-37)-peptidyl-Gly-N{Epsilon}[2-[2-[2-[[2-[2-[2-[[2-[2-[2-[[2-[2-[2-[[(2S)-2,6-bis[[(4S)-4-carboxy-4-[[4-[(19-carboxynonadecanoylamino)methyl]cyclohexanecarbonyl]amino]butanoyl]amino]hexanoyl]amino]ethoxy]ethoxy]acetyl]amino]ethoxy]ethoxy]acetyl]amino]ethoxy]ethoxy]acetyl]amino]ethoxy]ethoxy]acetyl]Lys] (Desaminohistidyl-[Aib]EGTFTSDVSSYLEEQAAREFIAWLVRGRGGK([AEEA-AEEA-AEEA-AEEA-X2])-OH; C-terminus assumed), the EC50 in data set [3] turned out to be 0.15 nM. In data set [1] (setting [4]), this compound registered an IC50 of 140 nM.

For `CC[C@H](C)[C@H](NC(=O)[C@H](Cc1ccccc1)NC(=O)[C@H](CCC(=O)O)NC(=O)[C@H](CCCNC(=N)N)NC(=O)[C@H](C)NC(=O)[C@H](C)NC(=O)[C@H](CCC(N)=O)NC(=O)[C@H](CCC(=O)O)NC(=O)[C@H](CCC(=O)O)NC(=O)[C@H](CC(C)C)NC(=O)[C@H](Cc1ccc(O)cc1)NC(=O)[C@H](CO)NC(=O)[C@H](CO)NC(=O)[C@@H](NC(=O)[C@H](CC(=O)O)NC(=O)[C@H](CO)NC(=O)[C@@H](NC(=O)[C@H](Cc1ccccc1)NC(=O)[C@@H](NC(=O)CNC(=O)[C@H](CCC(=O)O)NC(=O)C(C)(C)NC(=O)[C@@H](N)Cc1c[nH]cn1)[C@@H](C)O)[C@@H](C)O)C(C)C)C(=O)N[C@@H](C)C(=O)N[C@@H](Cc1c[nH]c2ccccc12)C(=O)N[C@@H](CC(C)C)C(=O)N[C@H](C(=O)N[C@@H](CCCNC(=N)N)C(=O)NCC(=O)N[C@@H](CCCNC(=N)N)C(=O)N[C@@H](CCCCNC(=O)COCCOCCNC(=O)COCCOCCNC(=O)COCCOCCNC(=O)COCCOCCNC(=O)[C@H](CCCCNC(=O)COCCOCCNC(=O)CC[C@H](NC(=O)[C@H]1CC[C@H](CNC(=O)CCCCCCCCCCCCCCCCCCC(=O)O)CC1)C(=O)O)NC(=O)COCCOCCNC(=O)CC[C@H](NC(=O)[C@H]1CC[C@H](CNC(=O)CCCCCCCCCCCCCCCCCCC(=O)O)CC1)C(=O)O)C(=O)O)C(C)C` [Example 21, N{Epsilon-37}-[2-[2-[2-[[2-[2-[2-[[2-[2-[2-[[2-[2-[2-[[(2S)-2,6-bis[[2-[2-[2-[[(4S)-4-carboxy-4-[[4-[(19-carboxynonadecanoylamino)methyl]cyclohexanecarbonyl]amino]butanoyl]amino]ethoxy]ethoxy]acetyl]amino]hexanoyl]amino]ethoxy]ethoxy]acetyl]amino]ethoxy]ethoxy]acetyl]amino]ethoxy]ethoxy]acetyl]amino]ethoxy]ethoxy]acetyl]-[Aib8,Glu22,Arg26,Arg34,Lys37]-GLP-1-(7-37)-peptide], the IC50 in data set [1] (setting [4]) was 19 nM; in data set [1] (Low HSA IC50 (nM), low HSA (max. 0.001% final assay concentration)) it was 1.5 nM.
